# Key:
# Escherichia coli = assay: Growth inhibition of Escherichia coli ATCC 25922 incubated for 18 hrs; assay type: organism-based
# Staphylococcus aureus [1] = assay: Growth inhibition of Staphylococcus aureus ATCC 29213 incubated in MHB broth for 24 hrs; assay type: organism-based
# Acinetobacter baumannii = assay: Growth inhibition of Acinetobacter baumannii ATCC 19606 incubated for 18 hrs without shaking by absorbance based monochromator plate reader analysis; assay type: organism-based, ATCC 19606 = CIP 70.34 = JCM 6841; settings: in vitro
# Enterococcus faecalis = assay: Growth inhibition of Enterococcus faecalis ATCC 29212 incubated in MHB broth for 24 hrs; assay type: organism-based
# Streptococcus pneumoniae = assay: Growth inhibition of Streptococcus pneumoniae ATCC 49619 incubated in MHB medium with lysed horse blood and 5% CO2 for 24 hrs; assay type: organism-based
# Klebsiella pneumoniae = assay: Growth inhibition of Klebsiella pneumoniae ATCC 700603 incubated for 18 hrs; assay type: organism-based
# [2] = Cytotoxicity against HEK293 cells assessed as decrease in cell viability after 20 hrs by resazurin dye-based fluorescence assay; settings: human
# Staphylococcus aureus [3] = assay: Growth inhibition of methicillin-resistant Staphylococcus aureus ATCC 43300 incubated for 18 hrs; assay type: organism-based
# Pseudomonas aeruginosa = assay: Growth inhibition of Pseudomonas aeruginosa ATCC 27853 incubated for 18 hrs; assay type: organism-based
# Clostridioides difficile [4] = assay: Antibacterial activity against Clostridium difficile ATCC 700057 incubated for 2 to 4 hrs in pre-reduced brucella broth supplemented with haemin/vitamin K and further incubation in anaerobic condition for 48 hrs; assay type: functional
# Clostridioides difficile [5] = assay: Antibacterial activity against Clostridium difficile NSW132 RT027 incubated for 2 to 4 hrs in pre-reduced brucella broth supplemented with haemin/vitamin K and further incubation in anaerobic condition for 48 hrs; assay type: functional
Compound,MIC (Escherichia coli),MIC (Staphylococcus aureus [1]),MIC (Acinetobacter baumannii),MIC (Enterococcus faecalis),MIC (Streptococcus pneumoniae),MIC (Klebsiella pneumoniae),CC50 at 20 h [2],MIC (Staphylococcus aureus [3]),MIC (Pseudomonas aeruginosa),MIC (Clostridioides difficile [4]),MIC (Clostridioides difficile [5])
CC(C)CCOc1ccccc1-c1ccccc1OCc1cn([C@H](CCCCN)C(=O)NCCc2ccccc2)nn1.Cl,> 32 µg/mL,8 µg/mL,32 µg/mL,8 µg/mL,8 µg/mL,> 32 µg/mL,> 32 µg/mL,8 µg/mL,> 32 µg/mL,32 µg/mL,32 µg/mL
CC(C)CCOc1ccc2ccccc2c1-c1c(OCc2cn([C@H](CCCCN)C(=O)N[C@H](CCCNC(=N)N)C(=O)N3CCCCC3)nn2)ccc2ccccc12.Cl.Cl,32 µg/mL,8 µg/mL,8 µg/mL,8 µg/mL,8 µg/mL,16 µg/mL,16.8 µg/mL,2 µg/mL,16 µg/mL,16 µg/mL,32 µg/mL
CC(C)CCOc1ccc2ccccc2c1-c1c(OCC(=O)N[C@H](CCCNC(=N)N)C(=O)NCCc2ccc(F)cc2)ccc2ccccc12.Cl,> 32 µg/mL,> 128 µg/mL,> 32 µg/mL,> 128 µg/mL,> 128 µg/mL,> 32 µg/mL,> 32 µg/mL,4 µg/mL,> 32 µg/mL,> 128 µg/mL,64 µg/mL
CC(C)CCOc1ccccc1-c1ccccc1OCc1cn([C@H](CCCNC(=N)N)C(=O)NCCc2ccc(F)cc2)nn1.Cl,> 32 µg/mL,4 µg/mL,> 32 µg/mL,4 µg/mL,4 µg/mL,> 32 µg/mL,19.1 µg/mL,16 µg/mL,> 32 µg/mL,64 µg/mL,64 µg/mL
CC(C)CCOc1ccccc1-c1ccccc1OCc1cn([C@H](CCCCN)C(=O)NCc2ccccc2)nn1.Cl,> 32 µg/mL,8 µg/mL,32 µg/mL,16 µg/mL,8 µg/mL,> 32 µg/mL,> 32 µg/mL,,32 µg/mL,32 µg/mL,32 µg/mL
CC(C)CCOc1ccccc1-c1ccccc1OCc1cn([C@H](CCCNC(=N)N)C(=O)NC2CC2)nn1.Cl,> 32 µg/mL,16 µg/mL,> 32 µg/mL,32 µg/mL,8 µg/mL,> 32 µg/mL,20 µg/mL,,> 32 µg/mL,64 µg/mL,128 µg/mL
COLISTIN,0.125 µg/mL,,0.25 µg/mL,,,0.25 µg/mL,,,0.25 µg/mL,,
CC(C)CCOc1ccccc1-c1ccccc1OCc1cn([C@H](CCCNC(=N)N)C(=O)NCc2ccc(C(F)(F)F)cc2)nn1.Cl,> 32 µg/mL,16 µg/mL,> 32 µg/mL,16 µg/mL,32 µg/mL,> 32 µg/mL,> 32 µg/mL,,> 32 µg/mL,128 µg/mL,128 µg/mL
CC(C)CCOc1ccccc1-c1ccccc1OCc1cn([C@H](CCCNC(=N)N)C(=O)NCc2cc(F)cc(F)c2)nn1.Cl,> 32 µg/mL,8 µg/mL,> 32 µg/mL,8 µg/mL,16 µg/mL,> 32 µg/mL,22.9 µg/mL,,> 32 µg/mL,32 µg/mL,32 µg/mL

# — ChEMBL document CHEMBL4393656, “Cationic biaryl 1,2,3-triazolyl peptidomimetic amphiphiles targeting Clostridioides (Clostridium) difficile: Synthesis, antibacterial evaluation and an in vivo C. difficile infection model” (Eur J Med Chem, 2019)
